Test system: Male Sprague Dawley rats
Assay: Charcoal transit model of postoperative ileus (POI) after cecum manipulation
Format: in vivo, rat
Details: for % GI Transfer: 4 h after oral charcoal meal; for Dose response of the effect on POI (in words): low versus high dose gel formulations; for Prevention of POI (in words): delivered via gel to the manipulated intestines
Text: The charcoal transit model is an acceptable and established model to study the effects of abdominal surgery on intestinal motility. We followed the procedure as described by De Winter et al. (1997) (Reference: Effect of adrenergic and nitrergic blockade on experimental ileus in rats. British Journal of Pharmacology (1997) 120, 464-468. Benedicte Y. De Winter, Guy E. Boeckxstaens, Joris G. De Man, Tom G. Moreels, Arnold G. Herman & Paul A. Pelckmans). The model simulates the abdominal procedure in human and tests for gastric emptying and intestinal motility by the transfer of a charcoal meal fed to the animals.
Male Sprague Dawley rats, weighing 250-275 g (8 in group) were anesthetized with a xylazine/ketamine cocktail, injected IM, the abdomen was shaved and disinfected with alcohol and Betadyne. A 2.5 cm incision was made from the xyphoid process caudally. The intestinal contents was exteriorized onto wet gauze. The cecum was manipulated gently for 1 minute. The abdominal contents were replaced, the treatment was applied, and the body wall was closed with 4-0 PDS for the fascia and muscle layers. The skin was closed with wound clips. In addition, two control groups were tested as well: incision only and naïve. Treatment groups included two control groups, surgery (incision only) and naïve, and two treatment groups, a high and low dose of Diclofenac, as well as 3 wt % Na-CMC gel alone. The high and low dose of Diclofenac, as well as the 3 wt % Na-CMC gel were prepared as described above. 8 rats were included in each group with a total of 40 rats.
The rats were treated with an oral solution of charcoal (10%) in acacia gum (2%). Four hours following oral administration rats were euthanized with Euthasole. The intestines were exteriorized and the distance traveled by the charcoal meal was measured as well as the full length of the intestines (from the pylorus through the anus). Results are expressed as percent of distance traveled relative to the full length of the intestines.
Male Sprague Dawley rats, weighing 250-275 g (8 in group) were anesthetized with a xylazine/ketamine cocktail, injected IM, the abdomen was shaved and disinfected with alcohol and Betadyne. A 2.5 cm incision was made from the xyphoid process caudally. The intestinal contents was exteriorized onto wet gauze. The cecum was manipulated gently for 1 minute. The abdominal contents were replaced, the treatment was applied, and the body wall was closed with 4-0 PDS for the fascia and muscle layers. The skin was closed with wound clips. In addition, two control groups were tested as well: incision only and naïve. Treatment groups included two control groups, surgery (incision only) and naïve, and 4 treatment groups, a high and low dose of Diclofenac, a high and a low dose of Naproxen, as well as 3 wt % Na-CMC gel alone. The high and low dose of Diclofenac, as well as the 3 wt % Na-CMC gel were prepared as described above. 8 rats were included in each group with a total of 56 rats.

[1] = Example 2, both doses (0.3 and 2.0 mg) in gel, compared with non-treated and gel-alone animals
[2] = Example 2, high dose 2.0 mg in 3 wt % Na-CMC gel applied after intestinal manipulation
[3] = Example 2, low dose 0.3 mg in 3 wt % Na-CMC gel applied after intestinal manipulation

SMILES	Alleviation of POI (in words) [1]	% GI Transfer [2] [%]	Alleviation of POI (in words) (Example 2, high dose (2.0 mg) in gel)	% GI Transfer [3] [%]	Dose response of the effect on POI (in words)	Prevention of POI (in words) (Example 1, high dose, listed as Diclofenac sodium)	Prevention of POI (in words) (Example 1, high dose, listed as diclofenac)	% GI Transfer (Example 1, listed as 'Diclofenac-Na high', dose printed 0.3 mg, in 3 wt % Na-CMC gel applied after intestinal manipulation, distance traveled relative to full intestine length) [%]	% GI Transfer (Example 1, listed as 'Diclofenac-Na low', dose printed 1.0 mg, in 3 wt % Na-CMC gel applied after intestinal manipulation, distance traveled relative to full intestine length) [%]	Prevention of POI (in words) (Example 1, low dose)
COc1ccc2cc([C@H](C)C(=O)O)ccc2c1 [Naproxen]	both doses improved on the gastric emptying and intestinal transfer	65.34	not completely curative	56.9	dose related prevention of the POI					
O=C(c1ccccc1)c1ccc2n1CCC2C(=O)O (stereo not drawn) [Ketorolac]	significant alleviation of the POI	69.84		70.99	dose response was not observed					
O=C(O)Cc1ccccc1Nc1c(Cl)cccc1Cl [Diclofenac-Na, Diclofenac sodium]					dose related manner	complete prevention	completely alleviated the POI	73.58	95.05	significant prevention of POI

Source: patent publication US20090326035A1, “Compositions and Methods for Preventing or Reducing Postoperative Ileus and Gastric Stasis in Mammals” (priority 2006, published 2009)
